These results are taken from patent publication US20260297042A1, “BIARYLAMIDE DERIVATIVES AND THEIR USE AS PKMYT1 INHIBITORS” (CANCER RESEARCH TECHNOLOGY LIMITED, priority 2023, published 2026).

For one assay, the system named is KYSE-30 cells. Put plainly: Cancer cell line proliferation assay, ATP-based cell viability (Cell Titre Glow), KYSE-30 (normal CCNE1). As to conditions: Homo sapiens, KYSE-30 cells (normal CCNE1), concentration that achieves 50% cell growth proliferation inhibition, read-out: KYSE30 Gl50. The procedure, abridged: (§1)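 CellTiter-Glo luminescence endpoint; PKMYT1 inhibitor exposure; GI50 = conc. for 50% growth inhibition, curve-fitted.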

In another assay the test system is OVCAR 3 cells. Put plainly: Cancer cell line proliferation assay, ATP-based cell viability (Cell Titre Glow), OVCAR 3 (CCNE1-amplified). The following applies: KYSE30 (normal CCNE1) GI50 vs. OVCAR 3 (CCNE1-amplified) GI50. The procedure, abridged: as §1
The next assay addresses T1, WEE1 (Homo sapiens, UniProt P30291).
T1 construct: purchased Thermo Fisher PR7373A
Briefly: Selectivity versus WEE1 assay (ADP-Glo enzymatic assay). In kind it is biochemical. As to conditions: for IC50: WEE1 15 nM, ADP-Glo, banded values; for PKMYT1 vs. WEE1 selectivity: fold difference in selectivity for PKMYT1 over WEE1, banded. The method, boiled down:
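WEE1 at 15 nM final in 50 mM HEPES pH 7.5, 10 mM MgCl2, 1 mM EGTA, 0.01% Brij-35, 1% DMSO; reaction started with 30 µM ATP, 60 min at 26 °C. ADP-Glo luminescence; IC50 from dose-response curves, replicates within 3-fold and r2 >0.9.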
In general terms: ADP-Glo first removes unused ATP, then detects ADP through luciferase.

For the next assay, the target named is T2, Human PKMYT1 (Homo sapiens, UniProt Q99640).
T2 construct: Human PKMYT1 75-362 was cloned as a TEV cleavable 6xHis fusion; 6xHis (TEV cleavable) (cleaved yes); made in house; host or cells: bacterial cells
T2 sequence (Q99640 75-362): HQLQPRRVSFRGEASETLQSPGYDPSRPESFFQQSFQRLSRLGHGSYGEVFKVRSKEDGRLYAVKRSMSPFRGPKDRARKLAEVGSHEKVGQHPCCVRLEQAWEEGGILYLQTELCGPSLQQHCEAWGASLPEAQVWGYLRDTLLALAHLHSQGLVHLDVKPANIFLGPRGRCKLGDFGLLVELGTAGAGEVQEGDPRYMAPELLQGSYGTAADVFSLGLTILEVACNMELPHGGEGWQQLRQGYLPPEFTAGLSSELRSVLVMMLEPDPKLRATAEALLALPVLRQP
Put plainly: PKMYT1 biochemical ADP-Glo enzymatic assay. The following applies: PKMYT1 kinase domain 15 nM; ADP-Glo; banded values. The method, boiled down:
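Purified untagged human PKMYT1 75-362 at 15 nM final was tested in HEPES pH 7.5 with MgCl2, EGTA, Brij-35 and 1% DMSO. Intrinsic ATPase activity was measured with 500 uM ATP over 60 min at 26° C. ADP-Glo luminescence was read and IC50 fitted from 10-point, 3-fold dilution curves.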

T1 sequence (P30291 whole entry): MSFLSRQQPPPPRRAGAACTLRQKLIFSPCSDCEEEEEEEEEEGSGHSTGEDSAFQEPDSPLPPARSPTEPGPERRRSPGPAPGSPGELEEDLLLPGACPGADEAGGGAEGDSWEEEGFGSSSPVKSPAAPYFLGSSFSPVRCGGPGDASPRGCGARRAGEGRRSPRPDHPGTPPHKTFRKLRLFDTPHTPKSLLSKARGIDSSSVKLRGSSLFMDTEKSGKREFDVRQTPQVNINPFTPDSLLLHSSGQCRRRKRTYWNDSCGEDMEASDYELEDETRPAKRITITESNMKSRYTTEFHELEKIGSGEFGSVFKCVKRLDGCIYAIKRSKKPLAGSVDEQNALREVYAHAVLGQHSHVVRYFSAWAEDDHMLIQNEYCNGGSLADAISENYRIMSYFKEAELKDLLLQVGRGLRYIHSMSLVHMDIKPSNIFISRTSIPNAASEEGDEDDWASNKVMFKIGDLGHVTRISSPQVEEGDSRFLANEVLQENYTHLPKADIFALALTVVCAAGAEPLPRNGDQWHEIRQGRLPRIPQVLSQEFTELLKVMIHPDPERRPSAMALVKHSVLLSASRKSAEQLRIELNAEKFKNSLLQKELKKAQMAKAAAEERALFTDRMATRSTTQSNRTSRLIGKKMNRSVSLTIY

As a reminder, the IC50 is the concentration at which inhibition is half-maximal. A lower IC50 goes with higher potency. Consider `COCCn1cc(C)c(Nc2ncc(C(=O)Nc3c(C)ccc(O)c3C)s2)n1` [BAA-490, N-(3-hydroxy-2,6-dimethylphenyl)-2-((1-(2-methoxyethyl)-4-methyl-1H-pyazol-3-yl)amino)thiazole-5-carboxamide], for which, in the assay on KYSE-30 cells, the GI50 is more than 5000 nM. Further, the “Selectivity ratio KYSE30 Gl50 vs. OVCAR3 Gl50” value with OVCAR 3 cells is “Y (>20 fold)”. At WEE1, the IC50 fell in the range of 1000 to 11000 nM and the “PKMYT1 vs. WEE1 selectivity” value is “X (100-<1000 fold)”. Also, the half-maximal inhibitory concentration (IC50) against Human PKMYT1 was less than 50 nM.
The like results for `CCCN(C)C(=O)Cn1cc(C)c(Nc2ncc(C(=O)Nc3c(C)ccc(O)c3C)s2)n1` [BAA-491, N-(3-hydroxy-2,6-dimethylphenyl)-2-((4-methyl-1-(2-(methyl(propyl)amino)-2-oxoethyl)-1H-pyrazol-3-yl)amino)thiazole-5-carboxamide] were, in that order, more than 5000 nM, “Y (>20 fold)”, 1000 to 11000 nM, “X (100-<1000 fold)” and less than 50 nM.
On the same counts, the results for `Cc1cn(CC(=O)N2CCCC2C)nc1Nc1ncc(C(=O)Nc2c(C)ccc(O)c2C)s1` (centres unmarked) [BAA-492, N-(3-hydroxy-2,6-dimethylphenyl)-2-((4-methyl-1-(2-(2-methylpyrrolidin-1-yl)-2-oxoethyl)-1H-pyrazol-3-yl)amino)thiazole-5-carboxamide] are more than 5000 nM, “Y (>20 fold)”, 1000 to 11000 nM, “X (100-<1000 fold)” and less than 50 nM.
The like results for `CCn1nc(Nc2ncc(C(=O)Nc3c(C)ccc(O)c3C)s2)cc1C` [BAA-495, 2-((1-ethyl-5-methyl-1H-pyrazol-3-yl)amino)-N-(3-hydroxy-2,6-dimethylphenyl)thiazole-5-carboxamide] were, in that order, more than 5000 nM, “Y (>20 fold)”, 1000 to 11000 nM, “W (10-<100 fold)” and 50 to 1000 nM.
With `Cc1cn(CC(=O)N2CCC(C)C2)nc1Nc1ncc(C(=O)Nc2c(C)ccc(O)c2C)s1` (centres unmarked) [BAA-497, N-(3-hydroxy-2,6-dimethylphenyl)-2-((4-methyl-1-(2-(3-methylpyrrolidin-1-yl)-2-oxoethyl)-1H-pyrazol-3-yl)amino)thiazole-5-carboxamide], the GI50 in the assay on KYSE-30 cells is more than 5000 nM. For the same compound, the “Selectivity ratio KYSE30 Gl50 vs. OVCAR3 Gl50” value with OVCAR 3 cells is reported as “Y (>20 fold)”. Further, at WEE1, the IC50 lay in the range of 1000 to 11000 nM and the “PKMYT1 vs. WEE1 selectivity” value was “X (100-<1000 fold)”. Further, on Human PKMYT1, the IC50 is less than 50 nM.
On the same counts, the results for `Cc1cn(CC(C)O)nc1Nc1ncc(C(=O)Nc2c(C)ccc(O)c2C)s1` (centres unmarked) [BAA-499, N-(3-hydroxy-2,6-dimethylphenyl)-2-((1-(2-hydroxypropyl)-4-methyl-1H-pyrazol-3-yl)amino)thiazole-5-carboxamide] are more than 5000 nM, “Y (>20 fold)”, 1000 to 11000 nM, “X (100-<1000 fold)” and less than 50 nM.
On the same counts, the results for `CCN(CC(F)(F)F)C(=O)Cn1cc(C)c(Nc2ncc(C(=O)Nc3c(C)ccc(O)c3C)s2)n1` [BAA-502, 2-((1-(2-(ethyl(2,2,2-trifluoroethyl)amino)-2-oxoethyl)-4-methyl-1H-pyrazol-3-yl)amino)-N-(3-hydroxy-2,6-dimethylphenyl)thiazole-5-carboxamide] are more than 5000 nM, “Y (>20 fold)”, 1000 to 11000 nM, “X (100-<1000 fold)” and less than 50 nM.
`Cc1ccc(O)c(C)c1NC(=O)c1cnc(Nc2ccn(C(C)C(=O)N3CCCC3)n2)s1` (centres unmarked) [BAA-506, N-(3-Hydroxy-2.6-dimethylphenyl)-2-((1-(1-oxo-1-(pyrrolidin-1-yl)propan-2-yl)-1H-pyrazol-3-yl)amino)thiazole-5-carboxamide]: the GI50 in the assay on KYSE-30 cells is more than 5000 nM. Besides, the “Selectivity ratio KYSE30 Gl50 vs. OVCAR3 Gl50” value in the assay on OVCAR 3 cells is “Y (>20 fold)”. Also, on WEE1, the IC50 was 1000 to 11000 nM and the “PKMYT1 vs. WEE1 selectivity” value is reported as “X (100-<1000 fold)”. Besides, the IC50 against Human PKMYT1 was less than 50 nM.
On the same counts, the results for `CCN(CC)C(=O)C(C)n1nc(Nc2ncc(C(=O)Nc3c(C)ccc(O)c3C)s2)cc1C` (centres unmarked) [BAA-509, 2-((1-(1-(diethylamino)-1-oxopropan-2-yl)-5-methyl-1H-pyrazol-3-yl)amino)-N-(3-hydroxy-2,6-dimethylphenyl)thiazole-5-carboxamide] are more than 5000 nM, “Y (>20 fold)”, more than 11000 nM, “X (100-<1000 fold)” and 50 to 1000 nM.
On the same counts, the results for `CCN(CC)C(=O)C(C)n1ccc(Nc2ncc(C(=O)Nc3c(C)ccc(O)c3C)s2)n1` (centres unmarked) [BAA-512, 2-((1-(1-(diethylamino)-1-oxopropan-2-yl)-1H-pyrazol-3-yl)amino)-N-(3-hydroxy-2,6-dimethylphenyl)thiazole-5-carboxamide] are more than 5000 nM, “Y (>20 fold)”, more than 11000 nM, “Y (1000-5000 fold)” and less than 50 nM.
For the compound `Cc1ccc(O)c(C)c1NC(=O)c1cnc(Nc2nn(C)cc2Cl)s1` [BAA-541, 2-((4-chloro-1-methyl-1H-pyrazol-3-yl)amino)-N-(3-hydroxy-2,6-dimethylphenyl)thiazole-5-carboxamide], in the assay with KYSE-30 cells, the GI50 was more than 5000 nM. For the same compound, in the assay with OVCAR 3 cells, the “Selectivity ratio KYSE30 Gl50 vs. OVCAR3 Gl50” value is given as “Y (>20 fold)”. On WEE1, the IC50 lay in the range of 1000 to 11000 nM and the “PKMYT1 vs. WEE1 selectivity” value is given as “X (100-<1000 fold)”. For the same compound, the IC50 at Human PKMYT1 was less than 50 nM.
On the same counts, the results for `Cc1ccc(O)c(C)c1NC(=O)c1cnc(Nc2nn(CCBr)cc2Cl)s1` [BAA-574, 2-((1-(2-Bromoethyl)-4-chloro-1H-pyrazol-3-yl)amino)-N-(3-hydroxy-2,6-dimethylphenyl)thiazole-5-carboxamide] are 500 to 5000 nM, “X (3-20 fold)”, 1000 to 11000 nM, “W (10-<100 fold)” and less than 50 nM.
The like results for `COC[C@@H]1CCCN1C(=O)Cn1cc(C)c(Nc2ncc(C(=O)Nc3c(C)ccc(O)c3C)s2)n1` [BAA-606, (S)-N-(3-hydroxy-2,6-dimethylphenyl)-2-((1-(2-(2-(methoxymethyl)pyrrolidin-1-yl)-2-oxoethyl)-4-methyl-1H-pyrazol-3-yl)amino)thiazole-5-carboxamide] were, in that order, 500 to 5000 nM, “Y (>20 fold)”, 1000 to 11000 nM, “X (100-<1000 fold)” and less than 50 nM.
